These results are taken from publication PMC12176259, “Bacterial transcriptional repressor NrdR – a flexible multifactorial nucleotide sensor” (The Febs Journal, 2025).

The target in experiment [1] is T1, E. coli NrdR (EcoNrdR) (Escherichia coli, UniProt P0A8D0).
T1 construct: full-length wild type, C-terminal His6 tag (pET30a(+)), E. coli BL21(DE3); tag not reported removed; co-purified nucleotides stripped for ITC (apo-NrdR); apo dimer, tetramer with ATP-dATP or ADP-dATP; SeMet version for 9FVR
T1 sequence (P0A8D0 whole entry): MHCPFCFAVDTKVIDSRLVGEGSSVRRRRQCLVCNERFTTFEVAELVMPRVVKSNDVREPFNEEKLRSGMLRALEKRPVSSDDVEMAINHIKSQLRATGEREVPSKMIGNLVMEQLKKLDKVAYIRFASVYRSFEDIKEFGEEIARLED
Nature of the experiment: ITC, one set of sites. It is filed as binding. An excerpt: ITC, one set of sites on E. coli NrdR (EcoNrdR)
(In general: Isothermal titration calorimetry measures the heat released or taken up as one component is titrated into another.)

Experiment [2] has as its target T1, E. coli NrdR (EcoNrdR). Kind of experiment: X-ray crystal structure, […] Å. It is filed as binding. As to conditions: with dATP and Mg2+; inner site.

As a reminder, the Kd is the equilibrium constant for the complex coming apart. Low values mean higher affinity, high ones lower affinity. `Nc1ncnc2c1ncn2[C@@H]1O[C@H](COP(=O)(O)OP(=O)(O)O)[C@@H](O)[C@H]1O` [ADP]: in experiment [1], the Kd came to 343 ± 19 nM.
As for `Nc1ncnc2c1ncn2[C@@H]1O[C@H](COP(=O)(O)OP(=O)(O)NP(=O)(O)O)[C@@H](O)[C@H]1O` [AMPPNP], the “X-ray crystal structure, 2.33 Å” value in experiment [2] was “In complex with dATP and AMPPNP, EcoNrdR is a tetramer”.
As to `Nc1ncnc2c1ncn2[C@@H]1O[C@H](COP(=O)(O)OP(=O)(O)OP(=O)(O)O)[C@@H](O)[C@H]1O` [ATP], the Kd in experiment [1] turned out to be 346 ± 93 nM.
In experiment [1], `Nc1ncnc2c1ncn2[C@H]1C[C@H](O)[C@@H](COP(=O)(O)OP(=O)(O)OP(=O)(O)O)O1` [dATP] gave a Kd of 610 ± 231 nM.
